Test results taken from patent US20070274916A1, “Method for Identifying Compounds that Affect Expression of Tryptophan Hydroxylase Isoform 2” (priority 2003, published 2007).
“Also recorded” adds a separate entry of the source.

Key:
Type in all cases: in vivo, mouse
TPH1 mRNA = TPH1 mRNA levels in murine raphe slice preparation by real-time RT-PCR; conditions: FIG. 6
From the text: (§1) Female mice (13 to 16 wks of age) were ovariectomized (C57BL/6s from Charles River; ER Knockout animals from Taconic). Animals were fed a soy-free rodent chow and allowed a minimum of one week to recuperate from surgery and shipping. […] Approximately six hours following the fourth dose, mice were deeply anesthetized with ketamine/xylazine and brains were removed from the skull, placed ventral side up in a mouse brain block on ice, and ice-cold razor blades were inserted into the block at 1 mm intervals. The caudal extent of the hypothalamus was used as an anatomical marker for the placement of the first razor blade, and 4 blades were placed in sequential slots, caudally. The four sections were examined and the two that encompassed the greatest extent of the dorsal raphe were placed in a tube containing RNALATER (Ambion, Austin, Tex.) and placed at 4° C. overnight. Brain slices were removed from RNALATER after 24 hours and stored at −80° C. in fresh tubes.
(§2) Isolation of total RNA from mouse raphe slices for real-time PCR analysis using the TAQMAN ABI PRISMS 7700 Detection System, Applied Biosystems, Foster City, Calif. was as follows. Samples were stored in RNALATER at 4° C. overnight followed by removal of RNALATER and storage at −80° C. until isolation of the total RNA (2 slices weigh 25 to 50 mg). Slices were removed from −80° C. and placed in 1.0 mL TRIZOL Reagent in FASTPREP processing tubes. Slices were homogenized with one pass at setting 6 for 30 seconds in FASTPREP 120 homogenizer using LYSING MATRIX D tubes with bead matrix followed by 20 seconds at setting 6 after all samples had been processed. Samples were set at room temperature for 5 minutes to allow for complete dissociation of nucleoprotein complexes followed by centrifugation of the samples at 12,000×g for 5 minutes at 4° C. Homogenates were transferred to 1.5 mL; microcentrifuge tubes and 100 μL BCP (Bromo-3-chloropropane) was added. Samples were vortexed for 15 seconds and set at room temperature for 2 to 3 minutes. Samples were centrifuged at 12,000×g for 15 minutes at 4° C. The aqueous layer was removed and placed in a new RNAse-free sterile 1.5 mL microcentrifuge tube. Five μL of 5 mg/μL glycogen was added to each sample and the samples were vortexed. Five hundred μL of isopropanol was added to each sample. The samples were vortexed for 15 seconds, set at room temperature 10 minutes, followed by centrifugation at 12,000×g for 15 minutes at 4° C. Supernatants were decanted and pellets washed with 500 μL ice cold 75% ethanol. Samples were centrifuged at 12,000×g for 15 minutes at 4° C., ethanol decanted, and pellets air dried for 10 minutes. Pellets were resuspended in 30 μL prewarmed RNASECURE (60° C.), and heated at 60° C. for 10 min. Samples were stored at −80° C. until DNAse treatment and cDNA synthesis.
DNase treatment and cDNA preparation with wt mouse raphe slice total RNA for TAQMAN analysis. DNase treatment using DNA-free kit (Ambion). Five μg of the total RNA sample was aliquotted to each well of a 96 well plate. An 1× DNase I solution was added to each sample (DNase I buffer, DNase I, H2O). Reactions were mixed and incubated at 37° C. for 30 minutes. Reactions were inactivated by addition of DNase inactivation reagent beads, mixed well at room temperature for 3 minutes and centrifuged at 2,500 RPM for 1 minutes at 4° C. (25 μL reactions were run and inactivated with 1/10 volume of inactivation reagent).
Reverse Transcription. A 10 μL of the DNase I-treated total RNA was added to 40 μL of 1× reverse transcription reaction mix (DEPC treated H2O, RT buffer, MgCl2, dNTP mix, random hexamers, RNase inhibitor, and MULTISCRIBE RT) and incubated at 25° C. for 10 minutes, 48° C. for 30 minutes, and 95° C. for 5 minutes. Reverse transcription was halted by the addition of EDTA. Samples were transferred to a storage plate and stored at −20° C. […]

TPH2 mRNA [1] = experiment: TPH2 mRNA levels in murine raphe slice preparation of ovariectomized female mice by real-time RT-PCR; conditions: prednisolone 10 mpk once daily; FIGS. 7 and 8
From the text: as §1, with “RNALATER” left out
Two TPH2 primer and probe sets were generated for use in detecting TPH2 by real-time RT-PCR. Murine TPH2 forward primers were mTPH2-514F and mTPH2-1270F, their corresponding sequences are 5′-[…]-3′ (SEQ ID NO:7; corresponding to nucleotides 514 to 535 of the nucleotide sequence encoding TPH2) and 5′-[…]-3′ (SEQ ID NO:8; corresponding to nucleotides 1270 to 1290 of the nucleotide sequence encoding TPH2), respectively. The murine TPH2 reverse primers were mTPH2-585R and mTPH2-1344R, their corresponding sequences are 5′-[…]-3′ (SEQ ID NO:9; corresponding to nucleotides 567 to 585 of the nucleotide sequence encoding TPH2) and 5′-[…]-3′ (SEQ ID NO:10; corresponding to nucleotides 1324 to 1344 of the nucleotide sequence encoding TPH2), respectively. The murine TPH2 probes were mTPH2-565T and mTPH2-1292T, their corresponding sequences are: 5′-[…]-3′ (SEQ ID NO:11; corresponding to nucleotides 539 to 565 of the nucleotide sequence encoding TPH2) and 5′-[…]-3′ (SEQ ID NO:12; corresponding to nucleotides 1292 to 1317 of the nucleotide sequence encoding TPH2), respectively. The probes were labeled at the 5′ end with FAM and the 3′ end with TAMRA.
as §2, with “RNALATER” left out, “ethanol.” for “ethanol. Samples were centrifuged at 12,000×g for 15 minutes at 4° C., ethanol decanted, and pellets air dried for 10 minutes. Pellets were resuspended in 30 μL prewarmed RNASECURE (60° C.), and heated at 60° C. for 10 min. Samples were stored at −80° C. until DNAse treatment and cDNA synthesis.”

[2] = Plasma corticosterone in male BKTO mice (radioimmunoassay); conditions: 4×5 mg pellets, equivalent of 40mg/kg/day, 14 days, FIG. 10, p=0.004
Description: (§3) Male BKTO mice (Bantin and Kingman, Hull UK) weighing 25 g at the start of the experiment were briefly anaesthetized using isofluorane. Animals were implanted with 4×5 mg cortic/sterone pellets (Innovative Research of America, catalogue number G-111, 21 day release formulation) or 4× placebo pellets (catalogue number NC-111) this gave an equivalent of 40mg/kg/day of corticosterone. Pellets were implanted using a trochar supplied by the manufacturer which had been modified to allow 4 pellets to be held in one trochar, thus requiring only one incision per animal. The most ideal place to implant the pellet was where there is maximal space between the skin and the muscle such as the lateral side of the neck between the ear and the shoulder-no stitching or wound clipping was required when using this technique. Animals were returned to the home cage and allowed to recover. Fourteen days later, the animals were humanely killed and trunk blood collected into EDTA coated tubes, centrifuged for 10 minutes at 3000 rpm, and plasma removed and frozen on dry ice until ready for analysis. Brains were removed, frozen in isopentane, and stored at −80° C. until ready for analysis. […] Plasma corticosterone was analyzed using a COAT-A-COUNT rat corticosterone radioimmunoassay kit (DPC Products-Order no TKRC1). […]

TPH2 mRNA [3] = experiment: TPH2 mRNA in raphe slice preparation of male BKTO mice under chronic corticosterone, real-time RT-PCR; conditions: 14 days, equivalent of 40mg/kg/day
Description: as §3

| plasma levels after treatment [2] | Compound | effect on TPH1 mRNA levels (TPH1 mRNA; 10 mpk s.c., ovariectomized mice) | change of TPH1 mRNA levels in response to treatment (TPH1 mRNA; murine raphe slice preparations, dose not stated) | effect on TPH2 mRNA expression compared to vehicle (TPH2 mRNA [1]) | level of TPH2 mRNA in raphe slice preparation (TPH2 mRNA [3]; FIG. 11, p=0.01) | level of TPH2 mRNA in raphe slice preparation (TPH2 mRNA [3]; FIG. 11, p=0.01, listed as corticosterone) |
| --- | --- | --- | --- | --- | --- | --- |
| – | C[C@]12C=CC(=O)C=C1CC[C@@H]1[C@@H]2[C@@H](O)C[C@@]2(C)[C@H]1CC[C@]2(O)C(=O)CO [prednisolone] | neither 3 mpk of dexamethasone nor 10 mpk prednisolone had any effect; also recorded: no effect | no detectable change | decrease; also recorded: significant reduction | – | – |
| significant increase | C[C@]12C[C@H](O)[C@H]3[C@@H](CCC4=CC(=O)CC[C@@]43C)[C@@H]1CC[C@@H]2C(=O)CO [corticosterone] | – | – | – | significantly reduced | significant decrease |
